Active and inactive are the calls of the source. Rule as the data show it, for most assays here: actives have a measured EC50 and inactives only a lower limit.

Chain of FAD-linked sulfhydryl oxidase ALR (P55789 whole entry): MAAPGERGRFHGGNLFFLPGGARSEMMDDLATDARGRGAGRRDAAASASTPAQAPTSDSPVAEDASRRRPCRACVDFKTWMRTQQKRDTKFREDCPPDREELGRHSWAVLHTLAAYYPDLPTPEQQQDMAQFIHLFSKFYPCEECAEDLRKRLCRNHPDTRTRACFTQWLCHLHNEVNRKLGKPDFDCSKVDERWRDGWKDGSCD

One assay has as its target T1, Protein RecA (Mycobacterium tuberculosis, UniProt P9WHJ3).
T1 sequence (P9WHJ3 whole entry): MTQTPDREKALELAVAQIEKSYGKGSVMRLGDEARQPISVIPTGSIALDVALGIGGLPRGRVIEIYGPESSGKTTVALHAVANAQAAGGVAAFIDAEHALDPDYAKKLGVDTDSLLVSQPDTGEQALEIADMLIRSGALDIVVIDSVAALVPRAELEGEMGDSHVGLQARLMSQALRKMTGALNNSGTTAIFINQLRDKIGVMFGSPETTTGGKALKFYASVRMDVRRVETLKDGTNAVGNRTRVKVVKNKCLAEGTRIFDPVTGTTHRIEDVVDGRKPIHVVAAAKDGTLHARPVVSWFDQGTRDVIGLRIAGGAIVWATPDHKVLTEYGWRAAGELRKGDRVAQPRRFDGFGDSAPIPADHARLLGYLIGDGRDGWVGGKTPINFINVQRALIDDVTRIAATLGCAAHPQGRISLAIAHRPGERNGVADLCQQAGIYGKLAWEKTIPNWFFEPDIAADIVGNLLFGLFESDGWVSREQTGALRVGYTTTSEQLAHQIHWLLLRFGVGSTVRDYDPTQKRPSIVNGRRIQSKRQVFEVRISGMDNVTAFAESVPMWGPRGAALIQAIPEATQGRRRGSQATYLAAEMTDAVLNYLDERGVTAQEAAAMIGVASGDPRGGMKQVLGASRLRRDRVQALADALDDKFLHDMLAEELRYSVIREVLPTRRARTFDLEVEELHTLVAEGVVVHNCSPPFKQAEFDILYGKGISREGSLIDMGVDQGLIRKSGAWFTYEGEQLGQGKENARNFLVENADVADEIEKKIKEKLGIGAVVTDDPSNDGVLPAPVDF
Kind of assay: Fluorescence Cell-Free Homogeneous Dose Retest to Identify Inhibitors of RecA-Intein Splicing Activity. [Related pubchem assays (depositor defined):AID2097, AID2223, AID489010, AID492950]. The format is functional.
Settings: not given
For `CCn1c(COc2ccc(Cl)cc2)nnc1SC1CCc2ccccc2C1=O` (stereo unspecified), the EC50 (as a rule, the concentration needed to bring the measured effect to its halfway point) is 25.4 µM (active).

The test system of the next assay is Vero. Put plainly: cells. The format is functional. To be noted: Chlorocebus sabaeus.
For `COc1cccc(/C=C2\SC(=S)N(CCC(=O)N3CCCCC3CCO)C2=O)c1` (stereo unspecified), the CC50 (commonly the concentration at which the toxic effect on the cells reaches its halfway point) is 15.9 µM (active).
With `CCOc1ccccc1CNC(=O)c1cn(C)c(=O)c2c1c1ccccc1n2C`, the cytotoxic concentration (CC50) was > 25 µM (active).
Take `C=COC(=O)NC1CCc2cc(OC)c(OC)c(OC)c2-c2ccc(SC)c(=O)cc21` (stereo unspecified): the CC50 was < 0.05 µM (active).
Still for that read-out and setting: the same measure for `Cc1ccc(S(=O)(=O)N2C[C@H]3n4c(=O)ccc(=O)n4C[C@H](OC(=O)NCC4CCCCC4)[C@@]3(O)C2)cc1`: > 25 µM (active).
For `CN(C)c1n/c(=N/c2cccc(Cl)c2)ss1`, the CC50 was 21.6 µM (active).
For the compound `O=C1Cc2c(-c3ccccc3)cc(-c3cccc(Cl)c3)nc2-c2ccccc2N1`, the CC50 was 11.4 µM (active).
Regarding `CCCCCOc1ccc(/C(C)=N/NC2=NCCN2)cc1`, the CC50 was > 25 µM (active).
Still for that read-out and setting: the same measure for `CC(=O)O[C@H]1C[C@]2(O)[C@@H]3CC[C@@H]4C[C@@H](O)CC[C@]4(C)[C@H]3CC[C@]2(C)[C@H]1C1=CC(=O)OC1`: 0.46 µM (active); for `COc1ccc(C(=O)/C=C/c2ccccc2)c(OC)c1`: 12.4 µM (active).

In a further assay the test system is H4. Put plainly: Luminescence Cell-Based Dose Response HTS to Identify Activators of 5'UTR Stem-Loop Driven Prion Protein mRNA Translation in H4 Neuroglioblastoma Cells. [Related pubchem assays: 1829 (Project Summary), 1814 (Primary HTS)]. The format is functional. Particulars: Homo sapiens.
As to `CCCCCC(=O)Nc1ccc(N2CCN(CC)CC2)c(Cl)c1`, the concentration for a half-maximal effect (EC50) was 5.08 µM (active).

Tested on in a further assay: not listed separately
Put plainly: Luminescence Cell-Based Dose Confirmation HTS to Identify Activators of 5'UTR Stem-Loop Driven Alpha-Synuclein mRNA Translation in H4 Neuroglioblastoma Cells. [Related pubchem assays: 1829 (Project Summary), 1814 (Primary HTS)]. It counts as functional.
Settings: not given
As for `CCCCCC(=O)Nc1ccc(N2CCN(CC)CC2)c(Cl)c1`, the EC50 is 15.5 µM (active).

The test system of the next assay is BJ. Put plainly: cytotoxicity toward BJ-TERT fibroblasts, dose response, cell-based, RAS-independent, luminescence (AID 1933). Particulars: Homo sapiens. The format is functional.
Turning to `O=Cc1[nH]c2ccccc2c1N(C(=O)CCl)c1ccc([N+](=O)[O-])cc1`, the EC50 was 5.65 µM (inconclusive).
Still for that read-out and setting: the same measure for `O=C(Nc1ccccc1N1CCCCC1)c1ccc(-c2ccc(Cl)cc2)o1`: 3.11 µM (inconclusive); for `O=C(Nc1ccc(Oc2ccccc2)nc1)C1CCCCN1Cc1ccco1` (stereo unspecified): 8.7 µM (inconclusive); for `CC(C)(C)c1ccc(C(=O)NC(=S)Nc2ccc(N3CCOCC3)cc2)cc1`: 18.2 µM (active).
`CCC(CC)c1nnc(NC(=O)CC(C)c2ccccc2)s1` (stereo unspecified): the EC50 is given as > 150 µM (not active).
As to `CC1=Nc2cc(C(=O)NCCCOC(C)C)ccc2Sc2ccccc21`, the concentration for a half-maximal effect (EC50) is 15.4 µM (active).
On the same count and under the same terms, the same measure for `Cc1nc(NC(=O)c2ccco2)sc1C(=O)O`: 7.4 µM (active).

Tested on in another assay: not listed separately
Put plainly: cytotoxicity toward DRD oncogenic fibroblasts, dose response, cell-based, non-viral oncogenic, luminescence (AID 1934). It counts as functional. To be noted: Homo sapiens.
For the compound `O=Cc1[nH]c2ccccc2c1N(C(=O)CCl)c1ccc([N+](=O)[O-])cc1`, the EC50 is 5.75 µM (inconclusive).
In the case of `O=C(Nc1ccccc1N1CCCCC1)c1ccc(-c2ccc(Cl)cc2)o1`, the half-maximal effective concentration (EC50) was 2.91 µM (active).
On to `O=C(Nc1ccc(Oc2ccccc2)nc1)C1CCCCN1Cc1ccco1` (stereo unspecified), for which the EC50 is 17.3 µM (inconclusive).
Regarding `CC(C)(C)c1ccc(C(=O)NC(=S)Nc2ccc(N3CCOCC3)cc2)cc1`, the EC50 was > 150 µM (not active).
For the compound `CCC(CC)c1nnc(NC(=O)CC(C)c2ccccc2)s1` (stereo unspecified), the half-maximal effective concentration (EC50) is > 150 µM (not active).
For `CC1=Nc2cc(C(=O)NCCCOC(C)C)ccc2Sc2ccccc21`, the EC50 is 18.6 µM (active).
For `Cc1nc(NC(=O)c2ccco2)sc1C(=O)O`, the EC50 is 10.3 µM (active).

For the next assay, the target named is T2, Replicative DNA helicase DnaB (Mycobacterium tuberculosis, UniProt P9WMR3).
T2 sequence (P9WMR3 whole entry): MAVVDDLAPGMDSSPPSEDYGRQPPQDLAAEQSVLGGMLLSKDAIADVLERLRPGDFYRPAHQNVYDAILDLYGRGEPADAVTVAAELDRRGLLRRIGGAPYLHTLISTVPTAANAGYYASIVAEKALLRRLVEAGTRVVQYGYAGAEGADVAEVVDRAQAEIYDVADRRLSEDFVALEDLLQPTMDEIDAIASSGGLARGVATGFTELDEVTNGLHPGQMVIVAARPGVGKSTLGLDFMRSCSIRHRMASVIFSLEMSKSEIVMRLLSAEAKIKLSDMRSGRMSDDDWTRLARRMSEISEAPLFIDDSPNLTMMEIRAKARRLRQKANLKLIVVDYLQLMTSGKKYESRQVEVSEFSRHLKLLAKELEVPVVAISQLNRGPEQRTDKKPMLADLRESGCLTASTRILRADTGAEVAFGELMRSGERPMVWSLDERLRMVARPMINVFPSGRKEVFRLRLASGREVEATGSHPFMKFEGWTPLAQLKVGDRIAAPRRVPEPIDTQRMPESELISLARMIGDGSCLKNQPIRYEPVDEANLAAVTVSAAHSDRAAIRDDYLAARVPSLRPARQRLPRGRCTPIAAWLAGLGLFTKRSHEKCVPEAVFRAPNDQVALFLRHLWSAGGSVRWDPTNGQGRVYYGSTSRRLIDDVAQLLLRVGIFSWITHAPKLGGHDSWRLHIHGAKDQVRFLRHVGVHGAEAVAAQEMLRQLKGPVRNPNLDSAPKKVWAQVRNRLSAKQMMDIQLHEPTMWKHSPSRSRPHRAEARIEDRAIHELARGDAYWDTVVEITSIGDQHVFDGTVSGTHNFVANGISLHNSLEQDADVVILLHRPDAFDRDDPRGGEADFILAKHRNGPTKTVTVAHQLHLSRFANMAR
Put plainly: DnaB intein splicing inhibitors, dose response, biochemical, cell-free fluorescence (AID 449749). It counts as functional.
Settings: not given
As to `CCn1c(COc2ccc(Cl)cc2)nnc1SC1CCc2ccccc2C1=O` (stereo unspecified), the half-maximal activity concentration (AC50) (in general, the concentration giving half of the maximal activity seen) was 9.31 µM (active).

For the next assay, the target named is T3, Calpain-2 catalytic subunit (Sus scrofa, UniProt P43367).
T3 sequence (P43367 whole entry): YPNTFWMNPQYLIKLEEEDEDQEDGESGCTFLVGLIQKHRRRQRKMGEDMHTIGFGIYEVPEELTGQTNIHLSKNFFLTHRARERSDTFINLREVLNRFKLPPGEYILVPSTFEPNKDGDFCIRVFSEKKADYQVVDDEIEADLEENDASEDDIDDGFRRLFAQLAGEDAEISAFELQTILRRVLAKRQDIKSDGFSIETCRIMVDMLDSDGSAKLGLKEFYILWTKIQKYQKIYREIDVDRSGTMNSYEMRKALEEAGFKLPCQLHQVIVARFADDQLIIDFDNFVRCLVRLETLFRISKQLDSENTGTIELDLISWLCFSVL
Put plainly: pig calpain II inhibitor potency, dose response, biochemical, fluorogenic peptide substrate (AID 1420).
Settings: not given
The format is functional.
For `CCn1c(COc2ccc(Cl)cc2)nnc1SC1CCc2ccccc2C1=O` (stereo unspecified), the IC50 – broadly, the concentration that inhibits the measured activity by half – is 7.24 µM (not active).
Consider `CCCCCC(=O)Nc1ccc(N2CCN(CC)CC2)c(Cl)c1`, for which the concentration for half-maximal inhibition (IC50) was 18.8 µM (not active).
For the compound `CC(=O)Nc1ccc(C2=NN(C)/C(=N/Cc3ccccc3)SC2)cc1`, the concentration for half-maximal inhibition (IC50) is listed as 8.93 µM (not active).

Another assay has as its system BJ. Kind of assay: cells. Particulars: Homo sapiens. The format is functional, cell-based.
As to `O=Cc1[nH]c2ccccc2c1N(C(=O)CCl)c1ccc([N+](=O)[O-])cc1`, the concentration giving a half-maximal response (EC50) was 7.89 µM (active).
As for `O=C(Nc1ccccc1N1CCCCC1)c1ccc(-c2ccc(Cl)cc2)o1`, the EC50 was 40.9 µM (inconclusive).
Regarding `O=C(Nc1ccc(Oc2ccccc2)nc1)C1CCCCN1Cc1ccco1` (stereo unspecified), the EC50 was 35.3 µM (active).
For `CC(C)(C)c1ccc(C(=O)NC(=S)Nc2ccc(N3CCOCC3)cc2)cc1`, the EC50 is 148 µM (inconclusive).
With `CCC(CC)c1nnc(NC(=O)CC(C)c2ccccc2)s1` (stereo unspecified), the EC50 was > 150 µM (not active).
As for `CC1=Nc2cc(C(=O)NCCCOC(C)C)ccc2Sc2ccccc21`, the EC50 is 57.5 µM (active).
The same measure, in the same setting: the same measure for `Cc1nc(NC(=O)c2ccco2)sc1C(=O)O`: 4.14 µM (active).

Tested on in a further assay: not listed separately
Put plainly: Luminescence Cell-Based Dose Response HTS to Identify Activators of Luciferase Translation or Activity in H4 […] Cells. [Related pubchem assays: 1829 (Project Summary), 1814 (Primary HTS)]. It counts as functional.
Settings: not given
As to `CCCCCC(=O)Nc1ccc(N2CCN(CC)CC2)c(Cl)c1`, the EC50 is 5.11 µM (active).

Another assay deals with BJ. Put plainly: cytotoxicity toward BJ-TERT-LT-ST fibroblasts, dose response, cell-based, RAS-independent, luminescence (AID 1935).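 Also: BJ fibroblasts immortalized with TERT plus LT and ST oncogenes.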 The format is functional. Particulars: Homo sapiens.
Regarding `O=Cc1[nH]c2ccccc2c1N(C(=O)CCl)c1ccc([N+](=O)[O-])cc1`, the EC50 is 4.03 µM (active).
Turning to `O=C(Nc1ccccc1N1CCCCC1)c1ccc(-c2ccc(Cl)cc2)o1`, the EC50 was 46.9 µM (inconclusive).
The same measure, in the same setting: the figure for `O=C(Nc1ccc(Oc2ccccc2)nc1)C1CCCCN1Cc1ccco1` (stereo unspecified) is 5.04 µM (inconclusive); for `CC(C)(C)c1ccc(C(=O)NC(=S)Nc2ccc(N3CCOCC3)cc2)cc1` it is > 150 µM (not active).
Still for that read-out and setting: the figure for `CCC(CC)c1nnc(NC(=O)CC(C)c2ccccc2)s1` (stereo unspecified) is > 75 µM (inconclusive).
For `CC1=Nc2cc(C(=O)NCCCOC(C)C)ccc2Sc2ccccc21`, the concentration giving a half-maximal response (EC50) was > 150 µM (inconclusive).
As for `Cc1nc(NC(=O)c2ccco2)sc1C(=O)O`, the EC50 was > 150 µM (inconclusive).

The next assay concerns the target FAD-linked sulfhydryl oxidase ALR (Homo sapiens, UniProt P55789). Kind of assay: inhibitors of human ALR sulfhydryl oxidase, dose response, biochemical, H2O2 detection, luminescence, cherry-pick (AID 493248).
Settings: not given
Take `CC(=O)Nc1ccc(C2=NN(C)/C(=N/Cc3ccccc3)SC2)cc1`: the AC50 was 3.9 µM (active).

The values are drawn from ChEMBL document CHEMBL1201862, “PubChem BioAssay data set” (2004).
